In PMC12446476 (Nature Communications, 2025):
Values after ≈ are worked out from the molar mass of the structure shown. Values joined by “and” are separate entries in the source; they are usually repeats but may differ in a detail not shown here. Equal values may be shown once. Read-outs that look alike come from different tables or passages of the source. Blank lines part the entries; values can stand above or below the molecule they belong to.

How the values were obtained:
N. gonorrhoeae [1] = experiment: In vitro selection of mutants with reduced susceptibility; format: cell-based, Neisseria gonorrhoeae
Procedure: N. gonorrhoeae strains were grown overnight on chocolate agar plates, as described above. […] Plates were incubated at 35 ± 2 °C in a humid 5% CO2–enriched atmosphere for 48–72 h.

human lymphocytes = experiment: In vitro micronucleus test; format: cell-based; conditions: for Micronucleated cells: 1000 scored cells
N. gonorrhoeae [2] = experiment: MIC determination, agar dilution (CLSI); format: cell-based, Neisseria gonorrhoeae; conditions: for MIC: Neisseria gonorrhoeae, read-out: Minimum inhibitory concentration; for NgMIC50: screening panel of 14 N. gonorrhoeae isolates
Text: The 2024 WHO N. gonorrhoeae reference strains were used for quality control. Only whole MIC doubling dilutions are reported. Clinical breakpoints or the epidemiological cutoff (ECOFF, to indicate azithromycin resistance) from EUCAST (v14.0, https://www.eucast.org/clinical_breakpoints) were used to classify isolates as antimicrobial susceptible or resistant. […] Two times the standard inoculum defined by CLSI was used to establish consistent growth in untreated control samples for some strains. In vitro time-kill assays were performed according to CLSI guidelines[65] using Columbia Broth (BD Difco) supplemented with 1% IsoVitaleX Enrichment (BD). Viable bacterial counts were generated by plating 10-fold serially diluted samples on GC agar plates containing 1% IsoVitaleX Enrichment (BD).

[3] = molecular target: T1, recombinant NgFabI protein (Neisseria gonorrhoeae, UniProt A0ACH0F547); experiment: biochemical
T1 sequence (A0ACH0F547 entry or part of it): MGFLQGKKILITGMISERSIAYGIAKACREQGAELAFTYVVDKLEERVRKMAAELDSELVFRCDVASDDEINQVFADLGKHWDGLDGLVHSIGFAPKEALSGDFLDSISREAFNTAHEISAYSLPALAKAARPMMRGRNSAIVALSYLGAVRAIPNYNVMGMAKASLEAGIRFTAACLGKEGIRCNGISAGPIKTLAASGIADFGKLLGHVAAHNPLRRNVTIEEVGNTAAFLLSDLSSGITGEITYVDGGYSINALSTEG
Procedure: FabI activity was monitored by measuring NADH consumption. […] To initiate reactions, 50 µM NADH was added, and absorbance was monitored at 340 nm every 12 s for a total of 40 min using a Spectramax Plus 384 plate reader (Molecular Devices) at a controlled temperature of 30 °C. Data were analysed using the XLfit Microsoft Excel plugin (version 5.5). IC50 values were determined using a logistic sigmoid curve-fitting of the inhibitor dose response curves.

[4] = molecular target: T1, recombinant NgFabI protein; conditions: cited from earlier work
S. aureus ATCC 29213 = experiment: S. aureus neutropenic murine thigh infection model; format: in vivo, mouse; conditions: ICR mice, 100 mg/kg PO, TID, 48h; 100 mg/kg
Procedure: The S. aureus neutropenic murine thigh infection model was performed in accordance with the Guide for Care and Use of Laboratory Animals[75]. Animal rooms were maintained at a temperature range of 20–24 °C and humidity between 30% and 70%, with 12 h light/dark cycles. Female ICR mice (BioLASCO Taiwan Co., Ltd.) were rendered neutropenic via IP injection of cyclophosphamide four days before infection (150 mg/kg) and again one day before infection (100 mg/kg). Animals were anaesthetised with isoflurane (3–5%), then inoculated intramuscularly with S. aureus ATCC 29213 (~1 × 10^5 CFU/mouse). […] Animals were sacrificed via CO2 asphyxiation at either 2 h (baseline), 26 and/or 50 h post-infection. Thigh tissues were harvested and homogenised in 3 mL sterile PBS (pH 7.4). Bacterial burdens were determined by performing 10-fold serial dilutions and plating on nutrient agar plates.

[5] = tested on: mouse lymphoma L5178Y TK+/− cells; format: cell-based; conditions: positive control, 10 µg/mL
E. coli WP2 uvrA = experiment: Ames assay, E. coli strain; format: cell-based; conditions: without S9, positive control 500 µg/plate
Procedure: Ames assays were performed using four strains of Salmonella typhimurium (TA1535, TA1537, TA98 and TA100) and a single strain of E. coli (WRP2 uvrA) in the presence and absence of S9 tissue homogenate. Dose levels (µg/plate) up to 4000 were assessed for WP2 uvrA and TA98, 500 for TA1535, 250 for TA1537 and 62.5 for TA100.

[6] = HepG2 cell viability (CellTiter-Glo); format: cell-based; conditions: human, HepG2 cells, read-out: Cell viability, Mean (n=3)
Procedure: (§1) HepG2 cells (HB-8065; ATCC) cultured in DMEM (Gibco) with 5% fetal bovine serum (heat-inactivated, Sigma-Aldrich) and 1% penicillin-streptomycin (ThermoFisher), were seeded in 96-well plates (3.0 × 10^4 per well) and incubated at 37 °C and 5% CO2. […] Each treatment was assessed in triplicate. Cytotoxicity was determined using CytoTox-ONE^TM Homogenous Membrane Integrity Assay kits (Promega), and cell viability was determined using CellTiter-Glo® Luminescent Cell Viability Assay kits (Promega), each according to the manufacturer’s specifications.

HepG2 cells = experiment: HepG2 cytotoxicity (CytoTox-ONE membrane integrity); format: cell-based, human; conditions: 24 h
Procedure: as §1

[7] = Suppl. Table 4, 31 h treatment, without S9, 31 h sampling, 0.08 µg/mL
[8] = Suppl. Table 5, 31 h treatment, without S9, 31 h sampling, 0.04 µg/mL
[9] = screening panel N. gonorrhoeae isolate A
[10] = screening panel N. gonorrhoeae isolate B
[11] = screening panel N. gonorrhoeae isolate C
[12] = screening panel N. gonorrhoeae isolate D
[13] = screening panel N. gonorrhoeae isolate E
[14] = screening panel N. gonorrhoeae isolate F
[15] = screening panel N. gonorrhoeae isolate G
[16] = screening panel N. gonorrhoeae isolate H
[17] = screening panel N. gonorrhoeae isolate I
[18] = screening panel N. gonorrhoeae isolate J
[19] = screening panel N. gonorrhoeae isolate K
[20] = screening panel N. gonorrhoeae isolate L
[21] = screening panel N. gonorrhoeae isolate M
[22] = screening panel N. gonorrhoeae isolate N
[23] = Suppl. Table 4, 3 h treatment, with S9, 32 h sampling, 15 µg/mL
[24] = Suppl. Table 5, 3 h treatment, with S9, 32.5 h sampling, 20 µg/mL

SMILES: O=C(O)c1cn(C2CC2)c2cc(N3CCNCC3)c(F)cc2c1=O [Ciprofloxacin, reference compound]
Mutants (colonies) (N. gonorrhoeae [1]; 6926, 4x MIC): 4 | Mutants (colonies) (N. gonorrhoeae [1]; 6926, 8x MIC): 5 | Mutants (colonies) (N. gonorrhoeae [1]; 6926, 16x MIC): 1 | Mutants (colonies) (N. gonorrhoeae [1]; ATCC 700825, 4x MIC): 1 | Mutants (colonies) (N. gonorrhoeae [1]; ATCC 700825, 8x MIC): 0 | Mutants (colonies) (N. gonorrhoeae [1]; ATCC 700825, 16x MIC): 0

SMILES: COc1cc2c(c(OC)c1OC)-c1ccc(OC)c(=O)cc1[C@@H](NC(C)=O)CC2 [Colchicine]
Incidence of micronucleated cells (human lymphocytes; -S9, treatment 31 h, harvest 31 h, positive control 0.04 µg/mL (Debio 1453 study)): 1.85% | Incidence of micronucleated cells (human lymphocytes; -S9, treatment 31 h, harvest 31 h, positive control 0.08 µg/mL (Debio 1453P study)): 3.35% | Micronucleated cell percentage (human lymphocytes; [7]): 3.35% | Micronucleated cells (human lymphocytes; [7]): 33 and 34 | Micronucleated cell percentage (human lymphocytes; [8]): 1.85% | Micronucleated cells (human lymphocytes; [8]): 19 and 18

MIC (N. gonorrhoeae [2]; [9]): 0.25 µg/mL (≈ 0.64 µM) | MIC (N. gonorrhoeae [2]; [10]): 0.125 µg/mL (≈ 0.32 µM) | MIC (N. gonorrhoeae [2]; [11]): 0.125 µg/mL (≈ 0.32 µM) | MIC (N. gonorrhoeae [2]; [12]): 0.25 µg/mL (≈ 0.64 µM) | MIC (N. gonorrhoeae [2]; [13]): 0.125 µg/mL (≈ 0.32 µM) | MIC (N. gonorrhoeae [2]; [14]): 0.25 µg/mL (≈ 0.64 µM) | MIC (N. gonorrhoeae [2]; [15]): 0.5 µg/mL (≈ 1.28 µM) | MIC (N. gonorrhoeae [2]; [16]): 0.25 µg/mL (≈ 0.64 µM) | MIC (N. gonorrhoeae [2]; [17]): 0.125 µg/mL (≈ 0.32 µM) | MIC (N. gonorrhoeae [2]; [18]): 0.25 µg/mL (≈ 0.64 µM) | MIC (N. gonorrhoeae [2]; [19]): 0.5 µg/mL (≈ 1.28 µM) | MIC (N. gonorrhoeae [2]; [20]): 0.25 µg/mL (≈ 0.64 µM) | MIC (N. gonorrhoeae [2]; [21]): 0.125 µg/mL (≈ 0.32 µM) | MIC (N. gonorrhoeae [2]; [22]): 0.125 µg/mL (≈ 0.32 µM) | IC50 [3]: 6 nM
SMILES: Cc1c(CN(C)C(=O)/C=C/c2cnc3c(c2)NCCC(=O)N3)oc2ccccc12 [Compound 1]
NgMIC50 (N. gonorrhoeae [2]): 0.25 µg/mL

MIC (N. gonorrhoeae [2]; [9]): 0.25 µg/mL (≈ 0.618 µM) | MIC (N. gonorrhoeae [2]; [10]): 0.125 µg/mL (≈ 0.309 µM) | MIC (N. gonorrhoeae [2]; [11]): 0.125 µg/mL (≈ 0.309 µM) | MIC (N. gonorrhoeae [2]; [12]): 0.125 µg/mL (≈ 0.309 µM) | MIC (N. gonorrhoeae [2]; [13]): 0.06 µg/mL (≈ 0.148 µM) | MIC (N. gonorrhoeae [2]; [14]): 0.25 µg/mL (≈ 0.618 µM) | MIC (N. gonorrhoeae [2]; [15]): 0.25 µg/mL (≈ 0.618 µM) | MIC (N. gonorrhoeae [2]; [16]): 0.125 µg/mL (≈ 0.309 µM) | MIC (N. gonorrhoeae [2]; [17]): 0.125 µg/mL (≈ 0.309 µM) | MIC (N. gonorrhoeae [2]; [18]): 0.125 µg/mL (≈ 0.309 µM) | MIC (N. gonorrhoeae [2]; [19]): 0.5 µg/mL (≈ 1.24 µM) | MIC (N. gonorrhoeae [2]; [20]): 0.125 µg/mL (≈ 0.309 µM) | MIC (N. gonorrhoeae [2]; [21]): 0.125 µg/mL (≈ 0.309 µM) | MIC (N. gonorrhoeae [2]; [22]): 0.125 µg/mL (≈ 0.309 µM) | IC50 [3]: 2.4 nM
SMILES: Cc1c(CN(C)C(=O)/C=C/c2cnc3c(c2)N[C@H](C)CC(=O)N3)oc2ccccc12 [Compound 2]
NgMIC50 (N. gonorrhoeae [2]): 0.125 µg/mL

SMILES: Cc1c(CN(C)C(=O)/C=C/c2cnc3c(c2)N[C@@H](C)CC(=O)N3)oc2ccccc12 [Compound 6]
Minimum inhibitory concentration (N. gonorrhoeae [2]; [9]): 1 µg/mL (≈ 2.47 µM) | Minimum inhibitory concentration (N. gonorrhoeae [2]; [10]): 0.5 µg/mL (≈ 1.24 µM) | Minimum inhibitory concentration (N. gonorrhoeae [2]; [11]): 0.5 µg/mL (≈ 1.24 µM) | Minimum inhibitory concentration (N. gonorrhoeae [2]; [12]): 0.5 µg/mL (≈ 1.24 µM) | Minimum inhibitory concentration (N. gonorrhoeae [2]; [13]): 0.5 µg/mL (≈ 1.24 µM) | Minimum inhibitory concentration (N. gonorrhoeae [2]; [14]): 1 µg/mL (≈ 2.47 µM) | Minimum inhibitory concentration (N. gonorrhoeae [2]; [15]): 1 µg/mL (≈ 2.47 µM) | Minimum inhibitory concentration (N. gonorrhoeae [2]; [16]): 1 µg/mL (≈ 2.47 µM) | Minimum inhibitory concentration (N. gonorrhoeae [2]; [17]): 0.5 µg/mL (≈ 1.24 µM) | Minimum inhibitory concentration (N. gonorrhoeae [2]; [18]): 1 µg/mL (≈ 2.47 µM) | Minimum inhibitory concentration (N. gonorrhoeae [2]; [19]): 2 µg/mL (≈ 4.94 µM) | Minimum inhibitory concentration (N. gonorrhoeae [2]; [20]): 0.5 µg/mL (≈ 1.24 µM) | Minimum inhibitory concentration (N. gonorrhoeae [2]; [21]): 0.5 µg/mL (≈ 1.24 µM) | Minimum inhibitory concentration (N. gonorrhoeae [2]; [22]): 0.5 µg/mL (≈ 1.24 µM) | IC50 [3]: 14 nM | fold less potent than its enantiomer compound 2 (NgFabI IC50) [3]: 5 fold

SMILES: O=P1(N(CCCl)CCCl)NCCCO1 (stereo not drawn) [Cyclophosphamide]
Incidence of micronucleated cells (human lymphocytes; +S9, treatment 3 h, harvest 32 h, positive control 15 µg/mL (Debio 1453P study)): 3.00% | Incidence of micronucleated cells (human lymphocytes; +S9, treatment 3 h, harvest 32.5 h, positive control 20 µg/mL (Debio 1453 study)): 7.15% | Micronucleated cell percentage (human lymphocytes; [23]): 3.00% | Micronucleated cells (human lymphocytes; [23]): 21 and 39 | Micronucleated cell percentage (human lymphocytes; [24]): 7.15% | Micronucleated cells (human lymphocytes; [24]): 78 and 65

SMILES: Cc1c(CN(C)C(=O)/C=C/c2cnc3c(c2)CCC(=O)N3)oc2ccccc12 [Debio 1452, (E)-N-methyl-N-((3-methylbenzofuran-2-yl)methyl)-3-(7-oxo-5,6,7,8-tetrahydro-1,8-naphthyridin-3-yl)acrylamide, reference compound]
MIC (N. gonorrhoeae [2]; [13]): 0.5 µg/mL (≈ 1.33 µM) | MIC (N. gonorrhoeae [2]; [14]): 2 µg/mL (≈ 5.33 µM) | MIC (N. gonorrhoeae [2]; [15]): 4 µg/mL (≈ 10.7 µM) | MIC (N. gonorrhoeae [2]; [16]): 2 µg/mL (≈ 5.33 µM) | MIC (N. gonorrhoeae [2]; [17]): 1 µg/mL (≈ 2.66 µM) | MIC (N. gonorrhoeae [2]; [18]): 2 µg/mL (≈ 5.33 µM) | MIC (N. gonorrhoeae [2]; [19]): 4 µg/mL (≈ 10.7 µM) | IC50 ([4]; deduced from Figure 3A of reference 15): ~100 nM | Ki ([4]; seen by the reviewer in the cited work, read-out: Kiapp): 5 nM

SMILES: CC(=O)NC[C@H]1CN(c2ccc(N3CCOCC3)c(F)c2)C(=O)O1 [Linezolid, reference compound]
CFU per thigh (S. aureus ATCC 29213): 930 CFU per thigh and 510 CFU per thigh and 570 CFU per thigh and 750 CFU per thigh and 720 CFU per thigh | Log10(CFU/Thigh) (S. aureus ATCC 29213): 2.968 Log10(CFU/Thigh) and 2.708 Log10(CFU/Thigh) and 2.756 Log10(CFU/Thigh) and 2.875 Log10(CFU/Thigh) and 2.857 Log10(CFU/Thigh)

SMILES: COS(C)(=O)=O [MMS, Methyl methanesulfonate]
Induced mutant frequency [5]: 421.6 | Mutant frequency per 10^6 cells [5]: 490.9 | Ames bacterial mutation assessment, Mean (E. coli WP2 uvrA): 168 | Colony count (E. coli WP2 uvrA): 174 and 161 and 169

SMILES: CN(C)CCCN1c2ccccc2Sc2ccc(Cl)cc21 [chlorpromazine]
viability at 24 h, 5 µM ([6]; 5 µM): 101% | viability at 24 h, 50 µM ([6]; 50 µM): 1% | viability at 24 h, 250 µM ([6]; 250 µM): 0% | Cytotoxicity, Mean (n=3) (HepG2 cells; 5 µM): 5% | Cytotoxicity, Mean (n=3) (HepG2 cells; 50 µM): 33% | Cytotoxicity, Mean (n=3) (HepG2 cells; 250 µM): 29%
